What all share (assay): Determination of Minimum Inhibitory Concentrations (MIC), agar dilution
Format in all cases: cell-based
In general terms: In agar dilution, organisms are placed on agar that contains the substance at set levels.

Test [1] deals with E. cloacae 1321E. Conditions: Enterobacter cloacae. The method, then:
(§1) 1. Determination of Minimum Inhibitory Concentrations (MIC)
(§2) Serial two-fold dilutions of freshly prepared test solutions were made into Oxoid No. 1 Nutrient agar with or without added enrichment and poured into petri diches. Plates were inoculated with a multipoint inoculator with inoculum containing approximately […] of the organisms shown in the following Tables, all of which organisms are clinical isolates. The MIC, quoted in the Tables as µg/ml, was read after 18 hours incubation at 37°C as the lowest concentration which inhibited growth.

The subject of test [2] is Staph.aureus 853E. The note with it: Staphylococcus aureus. The method, then: as §1, §2
The test system of test [3] is Micrococcus Sp 1810E. Conditions: SP1810E. The method, then: as §1, §2
For test [4], the system named is K. aerogenes 1522E. Conditions: Klebsiella aerogenes. The protocol:
as §1, §2

Test [5] relates to Pr. mirabilis 431E. The note with it: Proteus mirabilis. The protocol: as §1, §2
Test [6] has as its system E. coli 851E. Conditions: Escherichia coli. The protocol: as §1, §2
Test [7] deals with H. influenzae 1184E. Conditions: Haemophilus influenzae. The protocol: as §1, §2
Test [8] deals with E. cloacae 1051E. The note with it: Enterobacter cloacae. The protocol:
as §1, §2

These results are taken from EP0003892A1, “Beta-lactam compounds, processes for their production, compositions containing them and intermediates of use in their preparation” (GLAXO GROUP LIMITED, priority 1978, dated 1979).

≈ marks a conversion by molar mass, not a printed value. Where two headings read alike, the source gives them in different places.

Consider `CCOC(=S)SCCC1=C(C(=O)[O-])N2C(=O)CC2S1.[K+]` (racemic) [Example 36, Potassium (5RS)-2-(2-ethoxythiocarbonylthioethyl)pen-2-em-3-carboxylate], for which the MIC in test [1] (1321E, 18 h) is 16 µg/mL; in test [2] (853E, 18 h), less than 0.1 µg/mL; in test [3] (Micrococcus, 18 h), less than 0.1 µg/mL; in test [4] (1522E, 18 h) it was 16 µg/mL; in test [5] (431E, 18 h) it was 8 µg/mL; in test [6] (851E, 18 h) it was 8 µg/mL. Also, the MIC in test [7] (1184E, 18 h) amounted to 4 µg/mL; in test [8] (1051E, 18 h), 62 µg/mL.
As for `CC(=O)SCCC1=C(C(=O)[O-])N2C(=O)CC2S1.[K+]` (racemic) [Example 29, Potassium (5RS)-2-(2-acetylthioethyl)pen-2-em-3-carboxylate], the MIC in test [1] (1321E, 18 h) was 1 µg/mL; in test [2] (853E, 18 h), less than 0.1 µg/mL; in test [3] (Micrococcus, 18 h), less than 0.1 µg/mL; in test [4] (1522E, 18 h), 2 µg/mL; in test [5] (431E, 18 h), 1 µg/mL; in test [6] (851E, 18 h) it was 1 µg/mL. For the same compound, the MIC in test [7] (1184E, 18 h) came to 8 µg/mL; in test [8] (1051E, 18 h), 16 µg/mL.
As for `CN(C)C(=S)SCCC1=C(C(=O)O)N2C(=O)CC2S1` (racemic) [Example 38, (5RS)-2-(2-N,N-Dimethylthiocarbamoylthioethyl)pen-2-em-3-carboxylic acid], the MIC in test [1] (E. cloacae 1321E, clinical isolate, Oxoid No. 1 Nutrient agar, read after 18 hours incubation at 37°C, read-out: MIC) was 31 µg/mL (≈ 97.3 µM); in test [2] (Staph.aureus 853E, clinical isolate, Oxoid No. 1 Nutrient agar, read after 18 hours incubation at 37°C, read-out: MIC), less than 0.1 µg/mL; in test [3] (Micrococcus Sp 1810E, clinical isolate, Oxoid No. 1 Nutrient agar, read after 18 hours incubation at 37°C, read-out: MIC), less than 0.1 µg/mL; in test [4] (K. aerogenes 1522E, clinical isolate, Oxoid No. 1 Nutrient agar, read after 18 hours incubation at 37°C, read-out: MIC), 31 µg/mL (≈ 97.3 µM); in test [5] (Pr. mirabilis 431E, clinical isolate, Oxoid No. 1 Nutrient agar, read after 18 hours incubation at 37°C, read-out: MIC), 16 µg/mL (≈ 50.2 µM); in test [6] (E. coli 851E, clinical isolate, Oxoid No. 1 Nutrient agar, read after 18 hours incubation at 37°C, read-out: MIC), 31 µg/mL (≈ 97.3 µM). Besides, the MIC is 2 µg/mL (≈ 6.28 µM) in test [7] (H. influenzae 1184E, clinical isolate, Oxoid No. 1 Nutrient agar, read after 18 hours incubation at 37°C, read-out: MIC) and greater than 250 µg/mL in test [8] (E. cloacae 1051E, clinical isolate, Oxoid No. 1 Nutrient agar, read after 18 hours incubation at 37°C, read-out: MIC).
